The test system of this data set is ileum. Description: Ileum relaxation assay ex vivo. Particulars: 10^−11 to 10^−5 M, after contraction with carbachol. On the set-up: species or system rat. As for the experimental part: The functional ileum bioassay was carried out as described in detail elsewhere. (Van der Poorten, O., Van Den Hauwe, R., Eiselt, E., Betti, C., Guillemyn, K., Chung, N. N., Hall, F., Bihel, F., Schiller, P. W., Tourwé, D., Sarret, P., Gendron, L, . . . Ballet, S. (2017). X-Space Screening of Dermorphin-Based Tetrapeptides through Use of Constrained Arylazepinone and Quinolinone Scaffolds. ACS medicinal chemistry letters, 8(11), 1177-1182) Briefly, rats were euthanized, and 2 cm ileum segments were dissected out before removal of extraneous fat and connective tissue.
The ileum was then mounted under 0.5-g tension in a 10 mL organ bath containing warmed (37° C.) and oxygenated (95% O2, 5% CO2) Krebs solution (6.9 g/L NaCl, 0.145 g/L MgSO4, 2.1 g/L NaHCO3, 0.35 g/L KCl, 0.165 g/L KH2PO4, 1.98 g/L dextrose and 0.28 g/L CaCl2)). […] Contractions of the muscle were recorded via an isometric force transducer (159901A, Radnoti, Monrovia, CA, USA). […]
Each concentration of the compounds tested were followed by 2×15-min washout periods in Krebs solution to allow full relaxation. Dose-response curves were obtained with NT (8-13) (10^−11 to 10^−6) as standard for each ileum and for compound 34(10^−11 to 10^−5) and IC50 values were determined. […]
Data are expressed as mean±standard errors of the mean (SEM). […]

Each structure is given as a SMILES string. Entries after “also recorded” stand apart in the source; their conditions may differ. Where a SMILES comes first, the peptide text is derived from it. Bridges are numbered along the chain shown (N, C = ends). [ ]: non-standard residue; d: D form. AllylGly = C=CC[C@H](N)C(=O)O

Regarding `CC(C)C[C@H](NC(=O)[C@H](Cc1ccc(O)cc1)NC(=O)[C@@H]1CC=CC[C@H](N)C(=O)N[C@@H](CCCCN)C(=O)N[C@@H](CCCCN)C(=O)N1)C(=O)O` [compound 34, c[G(All)KKG(All)]YL] (H-[AllylGly]KK[AllylGly]YL-OH; staple 1-4), the Ileum relaxation entry is “doesn't impact gut motility; also recorded: No ileum”.

The values above are taken from patent publication US12358948B2, “Neurotensinergic agonists and methods of using same preventing or treating pain” (priority 2019, dated 2025).
